Patent US8765784B2, “Positive allosteric modulators of MGLUR2” (Merck Sharp & Dohme Corp., priority 2010, dated 2014)
pEC50: −log10 of the molar value.

What follows are molecules tested against T1, human mGluR2 (Homo sapiens, UniProt Q14416) (assay: FLIPR Ca2+ mobilization assay, potentiation of mGluR2). Conditions: CHO dhfr- cells expressing recombinant human mGluR2 and Gα16; potentiation after EC20 glutamate (900 nM); read-out: IC50 (Representative FLIPR EC50 Values).
T1 construct: expressed in transfected cells
T1 sequence (Q14416 19-872): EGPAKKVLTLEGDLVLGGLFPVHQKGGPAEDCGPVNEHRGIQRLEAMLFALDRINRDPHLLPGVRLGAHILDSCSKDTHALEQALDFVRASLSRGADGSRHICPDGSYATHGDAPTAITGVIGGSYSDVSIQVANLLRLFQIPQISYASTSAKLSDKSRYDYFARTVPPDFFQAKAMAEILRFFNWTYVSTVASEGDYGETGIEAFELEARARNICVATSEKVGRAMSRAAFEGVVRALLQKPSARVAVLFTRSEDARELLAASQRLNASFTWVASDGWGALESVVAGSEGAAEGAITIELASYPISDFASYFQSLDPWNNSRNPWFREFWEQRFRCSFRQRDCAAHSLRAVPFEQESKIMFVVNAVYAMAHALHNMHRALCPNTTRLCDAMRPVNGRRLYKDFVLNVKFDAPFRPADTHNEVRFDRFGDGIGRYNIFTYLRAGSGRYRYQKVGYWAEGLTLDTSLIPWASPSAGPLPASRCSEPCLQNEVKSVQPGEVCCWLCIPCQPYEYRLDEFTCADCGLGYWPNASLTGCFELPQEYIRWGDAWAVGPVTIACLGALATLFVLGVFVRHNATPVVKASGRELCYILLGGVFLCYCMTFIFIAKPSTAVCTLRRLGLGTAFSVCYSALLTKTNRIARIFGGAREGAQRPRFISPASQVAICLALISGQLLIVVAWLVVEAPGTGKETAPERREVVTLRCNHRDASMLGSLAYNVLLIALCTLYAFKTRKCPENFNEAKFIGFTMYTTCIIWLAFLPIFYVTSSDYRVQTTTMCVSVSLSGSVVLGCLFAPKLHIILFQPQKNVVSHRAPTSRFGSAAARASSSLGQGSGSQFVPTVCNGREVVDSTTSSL
Type: cell-based
Description: Activity in potentiating the mGluR2 receptor may be determined as follows. The compounds of the present invention are tested in a fluorescence laser imaging plate reader (FLIPR) based assay. This assay is a common functional assay to monitor Ca^2+ mobilization in whole cells expressing recombinant receptor coupled with a promiscuous G-protein. CHO dhfr-cells stably expressing recombinant human mGluR2 and Gα16 loaded with Fluo-4 AM (Invitrogen, Carlsbad Calif.) are treated with dose responses of compounds and the Ca^2+ response is monitored on a FLIPR384 (Molecular Devices, Sunnydale Calif.) for agonist activity. The potentiation response is monitored after a subsequent addition of an EC20 concentration of glutamate (900 nM). The maximum calcium response at each concentration of compound for agonist or potentiation are plotted as dose responses and the curves are fitted with a four parameters logistic equation giving EC50 and Hill coefficient using the iterative non linear curve fitting software program.

SMILES | pEC50
Cn1c(=O)n(CC(C)(C)C)c2ccc(-c3cc(Oc4ccnc(C#N)c4)ccc3C#N)nc21 [Compound 16-3, 4-{4-cyano-3-[1-(2,2-dimethylpropyl)-3-methyl-2-oxo-2,3-dihydro-1H-imidazo[4,5-b]pyridin-5-yl]phenoxy}pyridine-2-carbonitrile] | 8.10
Cn1c(=O)n(CC(C)(C)C)c2ccc(-c3cc(CN4CCS(=O)(=O)CC4)ccc3C#N)nc21 [Compound 21-11, 2-[1-(2,2-dimethylpropyl)-3-methyl-2-oxo-2,3-dihydro-1H-imidazo[4,5-b]pyridin-5-yl]-4-[(1,1-dioxidothiomorpholin-4-yl)methyl]benzonitrile] | 7.47
COC(=O)NC(C)(C)c1ccc(C)c(-c2ccc3c(n2)n(C)c(=O)n3CC(C)(C)C)c1 [Compound 42-3, Methyl (1-{3-[1-(2,2-dimethylpropyl)-3-methyl-2-oxo-2,3-dihydro-1H-imidazo[4,5-b]pyridin-5-yl]-4-methylphenyl}-1-methylethyl)carbamate] | 7.43
Cn1c(=O)n(CC(C)(C)C)c2ccc(-c3cccc(C(C)(C)O)c3F)nc21 [Compound 60-1, 1-(2,2-dimethylpropyl)-5-[2-fluoro-3-(1-hydroxy-1-methylethyl)phenyl]-3-methyl-1,3-dihydro-2H-imidazo[4,5-b]pyridin-2-one] | 7.60
Cn1c(=O)n(CC(C)(C)C)c2ccc(-c3cccc(CN4CCc5onc(O)c5C4)c3F)nc21 [Compound 61-4, 1-(2,2-dimethylpropyl)-5-{2-fluoro-3-[(3-hydroxy-6,7-dihydroisoxazolo[4,5-c]pyridin-5(4H)-yl)methyl]phenyl}-3-methyl-1,3-dihydro-2H-imidazo[4,5-b]pyridin-2-one] | 7.96
CC(O)C(=O)N1CCCC(c2cccc(-c3ccc4c(n3)n(C)c(=O)n4CC(C)(C)C)c2)C1 (stereo not shown) [Compound 65-6, 1-(2,2-dimethylpropyl)-5-{3-[1-(2-hydroxypropanoyl)piperidin-3-yl]phenyl}-3-methyl-1,3-dihydro-2H-imidazo[4,5-b]pyridin-2-one] | 7.55
Cn1c(=O)n(CC(C)(C)C)c2ccc(-c3cccc(N4CCN(C(=O)c5ccon5)CC4)c3)nc21 [Compound 66-4, 1-(2,2-dimethylpropyl)-5-{3-[4-(isoxazol-3-ylcarbonyl)piperazin-1-yl]phenyl}-3-methyl-1,3-dihydro-2H-imidazo[4,5-b]pyridin-2-one] | 7.35
Cc1ccc(CC(C)(C)O)cc1-c1ccc2c(n1)n(C)c(=O)n2CC(C)(C)C [Compound 81-3, 1-(2,2-dimethylpropyl)-5-[5-(2-hydroxy-2-methylpropyl)-2-methylphenyl]-3-methyl-1,3-dihydro-2H-imidazo[4,5-b]pyridin-2-one] | 7.37

Results, then the molecule that gave them:

pEC50 | SMILES
7.68 | Cn1c(=O)n(CC(C)(C)C)c2ccc(-c3cc(CN4CCN(S(C)(=O)=O)CC4)ccc3C#N)nc21 [Compound 21-45, 2-[1-(2,2-dimethylpropyl)-3-methyl-2-oxo-2,3-dihydro-1H-imidazo[4,5-b]pyridin-5-yl]-4-{[4-(methylsulfonyl)piperazin-1-yl]methyl}benzonitrile]
7.13 | CC(=O)N1CCN(Cc2ccc(C#N)c(-c3ccc4c(n3)n(C)c(=O)n4CC(C)(C)C)c2)CC1 [Compound 21-47, 4-[(4-acetylpiperazin-1-yl)methyl]-2-[1-(2,2-dimethylpropyl)-3-methyl-2-oxo-2,3-dihydro-1H-imidazo[4,5-b]pyridin-5-yl]benzonitrile]
6.65 | CC(=O)N1CCN(Cc2ccc(C)c(-c3ccc4c(n3)n(C)c(=O)n4CC(C)(C)C)c2)CC1 [Compound 51-9, 5-{5-[(4-acetylpiperazin-1-yl)methyl]-2-methylphenyl}-1-(2,2-dimethylpropyl)-3-methyl-1,3-dihydro-2H-imidazo[4,5-b]pyridin-2-one]
7.59 | Cc1ccc(CN2CCN(S(C)(=O)=O)CC2)cc1-c1ccc2c(n1)n(C)c(=O)n2CC(C)(C)C [Compound 51-10, 1-(2,2-dimethylpropyl)-3-methyl-5-(2-methyl-5-{[4-(methylsulfonyl)piperazin-1-yl]methyl}phenyl)-1,3-dihydro-2H-imidazo[4,5-b]pyridin-2-one]
7.46 | Cc1ccc(CN2CCN(S(C)(=O)=O)CC2)cc1-c1ccc2c(n1)n(C)c(=O)n2CC1CC1(F)F (stereo not shown) [Compound 56-4, 1-[(2,2-difluorocyclopropyl)methyl]-3-methyl-5-(2-methyl-5-{[4-(methylsulfonyl)piperazin-1-yl]methyl}phenyl)-1,3-dihydro-2H-imidazo[4,5-b]pyridin-2-one]
